Entries after “also recorded” stand apart in the source; their conditions may differ. Like-named read-outs stand apart in the source and are kept apart here.

Broadly, the inhibition is the drop in the measured response relative to a control, in per cent.

Data set [1] relates to HIV-1. The data set can be described thus: anti-HIV activity: protection of T4 lymphocytes from HIV-1 cytolysis (XTT). It is filed as cell-based. Particulars: HIV-1 in CEM cells. How it is done:
(§1) The procedure used to test the 6-pyridyl substituted pyrimidine derivatives activity against HIV is designed to detect agents acting at any stage of the virus reproductive cycle (see Weislow et al. (1989) J. Nat'l. Cancer Inst. 81:577-586, incorporated by reference herein). The assay basically involves the killing of T4 lymphocytes by HIV. Small amounts of HIV are added to cells, and a complete cycle of virus reproduction is necessary to obtain the required cell killing. Agents that interact virions, cells, or virus gene-products to interfere with viral activities will protect cells from cytolysis. All tests are compared with at least one positive (e.g., AZT-treated) control done at the same time under identical conditions.
(§2) 1. The candidate pyrimidine derivative is dissolved in dimethyl sulfoxide then diluted 1:100 in cell culture medium before preparing serial half-log10 dilutions. T4 lymphocytes (CEM cell line) are added and after a brief interval HIV-1 is added, resulting in a 1:200 final dilution of the compound. […]
(§3) 4. Individual wells are analyzed spectrophotomically to quantitate formazan production, and in addition are viewed microscopically for detection of viable cells and confirmation of protective activity. […]
(§4) The anti-HIV activity profile of 1-benzyloxymethyl-5-ethyl-6-(α-pyridylthio) uracil determined by this procedure has been graphically represented in FIG. 1.
A general note: Tetrazolium assays rely on reduction of a dye to a coloured formazan, in cell work by metabolically active cells.

The test system of data set [2] is HCT-8 cells. The data set can be described thus: growth inhibition of HCT-8 cells. Particulars: for inhibition at 10 µM / inhibition at 1 µM / inhibition at 3 µM: Homo sapiens, 72 hours; for inhibition at 1 µM: 5-FUra 1 micromolar; for inhibition at 3 µM: 5-FUra 3 micromolar. It is filed as cell-based, human. How it is done: (§5) In general, the experiments designed to assess the […] activity of 5-fluoropyrimidines in conjunction with the 6-pyridyl substituted pyrimidine are carried out as follows.
(§6) Screw cap plastic tissue culture tubes are seeded with identical numbers of cultured tumor cells (approximately 2×10^4 cells/tube) in 4.8 mL RPMI-1640 containing 10% Fetal Bovine Serum (FBS) and 2% HEPES (IM buffer solution). The cultures are incubated overnight, on their sides, at 37° C. in a nonhumidified […] incubator.
(§7) The following day, the number of cells in duplicate tubes is determined. The media is decanted, the cells rinsed with Hanks' Balanced Salt Solution (calcium, magnesium and bicarbonate free) and replaced with 4.0 mL of trypsin-EDTA solution. The tubes are incubated at 37° C. for 5 minutes, then shaken to loosen the cells from the tube walls. To each tube is then added 1.0 mL of FBS and medium (50:50) in order to stop the action of the trypsin. Clumps of cells are broken apart by forceful repipetting with a 10 mL glass pipette. The resulting single cell suspension is counted using trypan blue exclusion and the total number of cells per tube recorded as the starting cell number.
(§8) Cells suspended in RPMI/FBS are preincubated with or without BPTU for 30 minutes, followed by addition of a given dose of 5-FUra. Tables 1 and 2 present the cell growth inhibition after 72 hours incubation with varying concentrations of 5-FUra, in the presence or absence of preincubation with 10 micromolar BPTU.
(§9) Similarly, Table 2 reports the effects of 5-FUra used in conjunction with BPTU on ™HCT-8 cells.

Data set [3] can be described thus: toxicity to T4 lymphocytes (CEM cell line), uninfected toxicity control (XTT). The class given is cell-based. The note with it: human, CEM cells, 6 days, read-out: toxic concentration (IC50). How it is done:
as §1, §2, §3, §4

Data set [4] deals with HCT-8.clone 10 (AZT resistant) cells. The data set can be described thus: growth inhibition of HCT-8.clone 10 (AZT resistant) cells. It is filed as cell-based, human. The note with it: for inhibition at 10 µM / inhibition at 1 µM / inhibition at 100 µM: Homo sapiens, 72 hours, read-out: Percent Growth Inhibition; for inhibition at 1 µM: 5-FUra 1 micromolar; for inhibition at 100 µM: 5-FUra 100 micromolar. How it is done: as §5, §6, §7, §8, §9

[5] abbreviates: with BPTU (10 micromolar) preincubated 30 minutes, read-out: Percent Growth Inhibition.
The mark [6] stands for this setting: without BPTU, read-out: Percent Growth Inhibition.
The mark [7] stands for this setting: with BPTU (10 micromolar) preincubated 30 minutes.

`CCc1c(Sc2ccccn2)n(COCc2ccccc2)c(=O)[nH]c1=O` [BPTU, 1-benzyloxymethyl-5-ethyl-6-(α-pyridylthio) uracil]: in data set [1] (8640 min), the “therapeutic index (TI50)” value was > 1.1e+06 mM. Moreover, the EC50 in data set [1] (Human immunodeficiency virus 1, CCRF-CEM, 144 h, 6 days, XTT, read-out: effective concentration (EC50)) amounted to 0.9 nM. In addition, the inhibition at 10 µM in data set [2] (5-FUra 0, with BPTU (10 micromolar) alone, read-out: Percent Growth Inhibition) was 0%; in data set [4] (5-FUra 0, with BPTU (10 micromolar) alone) it was 0%. Also, the “growth inhibitory activity alone” value in data set [2] (alone at 10 micromolar) is “not shown to be growth inhibitory”; in data set [4] (alone at 10 micromolar, HCT-8.clone 10), “not shown to be growth inhibitory”. Besides, the “inhibition of cell growth in combination with 5-FUra” value is recorded as “more effectively than 5-FUra alone; also recorded: more effectively than 5FUra alone” in data set [2] (combination with 5-FUra vs 5-FUra alone) and “more effectively than 5FUra alone” in data set [4] (combination with 5-FUra vs 5-FUra alone, HCT-8.clone 10). Moreover, the CC50 at 144 h in data set [3] is > 980 nM.

Turning to `O=c1[nH]cc(F)c(=O)[nH]1` [Example 5-FUra, 5-fluorouracil], the inhibition at 1 µM in data set [2] (setting [5]) was found to be 33%; in data set [2] (setting [6]), 0%; in data set [4] (setting [7]), 23%; in data set [4] (without BPTU) it was 0%. Moreover, the results for the inhibition at 3 µM in data set [2] (setting [5]) and in data set [2] (setting [6]) were 55% and 9%, respectively. In addition, the inhibition at 10 µM in data set [2] (5-FUra 10 micromolar, with BPTU (10 micromolar) preincubated 30 minutes, P<0.01, read-out: Percent Growth Inhibition) is 80%; in data set [2] (5-FUra 10 micromolar, without BPTU, read-out: Percent Growth Inhibition), 33%; in data set [4] (5-FUra 10 micromolar, with BPTU (10 micromolar) preincubated 30 minutes, P<0.01), 74%; in data set [4] (5-FUra 10 micromolar, without BPTU) it was 29%. Also, the inhibition at 100 µM was > 100% in data set [4] (setting [7]) and 56% in data set [4] (without BPTU).

These data come from patent US5278167A, “6-pyridyl substituted pyrimidine derivatives” (Brown University Research Foundation, priority 1992, dated 1994).
